{"source": "patent US9720000B2", "about": "“Targeted identification of immunogenic peptides” (The Henry M. Jackson Foundation for the Advancement of …, priority 2005, dated 2017)", "assay_type_in_all_cases": "cell-based", "key": {"MCF-7 tumor cells": {"test_system": "MCF-7 tumor cells", "assay": "51Cr-release cytotoxicity (CTX) assay with peptide-stimulated CTL against MCF-7", "details": "for average specific CTX (% lysis) against MCF-7: peptide-stimulated CTL from healthy donor PBMC, MCF-7 (HLA-A2+), n = 5", "procedure": "(§1) T2 HLA-stabilization assays were performed to confirm HLA-A2 binding activity of Her577 by flow cytometry. PBMC from 9 healthy donors were stimulated with Her577 and tested in ^51Cr-release cytotoxicity (CTX) assays against 3 HER2/neu-expressing tumor cell lines."}, "LNCaP tumor cells": {"test_system": "LNCaP tumor cells", "assay": "51Cr-release cytotoxicity (CTX) assay with peptide-stimulated CTL against LNCaP", "details": "for average specific CTX (% lysis) against LNCaP: peptide-stimulated CTL from healthy donor PBMC, LNCaP (HLA-A2+), n = 2", "procedure": "as §1"}, "SKOV-3 tumor cells": {"test_system": "SKOV-3 tumor cells", "assay": "51Cr-release cytotoxicity (CTX) assay with peptide-stimulated CTL against SKOV-3", "details": "for average specific CTX (% lysis) against SKOV-3: peptide-stimulated CTL from healthy donor PBMC, SKOV-3 (HLA-A3+), n = 2", "procedure": "as §1"}, "HLA-A2": {"target": "T1, HLA-A2 (Homo sapiens, UniProt P04439, D140Y/D185E/D98H/E176V/E277Q/G131W/G231S/I119V/I121R/I166T/I218V/L300P/L318F/N151K/N90K/P208A/P217A/Q86G/Q94H/R138H/R169H/T345S)", "T1 construct": "endogenous in cells; host or cells: T2 cells", "assay": "T2 HLA-stabilization (peptide-binding) assay by flow cytometry", "details": "peptide incubated with T2 cells (25 μg per FIG. 5)", "procedure": "FIG. 5 depicts a T2 Peptide-binding assay, in which 25 μg of peptide were incubated with T2 cells, levels of HLA-A2 levels were measured by flow cytometry and are indicated as Mean Fluorescence Intensity units.\nas §1"}, "[1]": {"details": "Her577-stimulated CTL, targets pre-treated with Tz at 50 μg/ml for 24 h, P=0.19"}}, "data": [{"substance": "GP2: immunogenic peptide from HER2/neu (IISAVVGIL) [reference compound]", "values": [{"measurement": "average specific CTX (% lysis) against MCF-7", "setting": "MCF-7 tumor cells", "value": "48 ± 1", "unit": "% lysis"}, {"measurement": "average specific CTX (% lysis) against LNCaP", "setting": "LNCaP tumor cells", "value": "26 ± 9", "unit": "% lysis"}, {"measurement": "average specific CTX (% lysis) against SKOV-3", "setting": "SKOV-3 tumor cells", "value": "46 ± 5", "unit": "% lysis"}, {"measurement": "mean fluorescence intensity (HLA-A2 level on T2 cells)", "setting": "HLA-A2", "value": 682}]}, {"substance": "Her577: peptide Her577 (aa; 577-585) within the Ab-binding site of trastuzumab on HER2/neu (FGPEADQCV)", "values": [{"measurement": "increase in specific CTX versus untreated MCF-7", "setting": "MCF-7 tumor cells; [1]", "value": 16, "unit": "%"}, {"measurement": "average specific CTX (% lysis) against MCF-7", "setting": "MCF-7 tumor cells", "value": "45 ± 3", "unit": "% lysis"}, {"measurement": "increase in specific CTX versus untreated LNCaP", "setting": "LNCaP tumor cells; [1]", "value": 83, "unit": "%"}, {"measurement": "average specific CTX (% lysis) against LNCaP", "setting": "LNCaP tumor cells", "value": "30 ± 3", "unit": "% lysis"}, {"measurement": "increase in specific CTX versus untreated SKOV-3", "setting": "SKOV-3 tumor cells; [1]", "value": 47, "unit": "%"}, {"measurement": "average specific CTX (% lysis) against SKOV-3", "setting": "SKOV-3 tumor cells", "value": "49 ± 28", "unit": "% lysis"}, {"measurement": "mean fluorescence intensity (HLA-A2 level on T2 cells)", "setting": "HLA-A2", "value": 1275}]}]}
